Results taken from publication PMC6954720, “Discovery of retinoic acid receptor agonists as proliferators of cardiac progenitor cells through a phenotypic screening approach” (Stem Cells Translational Medicine, 2019).
“Also recorded” adds a separate entry of the source. Read-outs that look alike come from different tables or passages of the source.

Columns and labels:
[1] = system: human iPS-derived cardiac progenitor cells (CPCs); test: CPC proliferation assay (nuclear count); type: cell-based
[2] = system: human aortic SMCs; design: method as in PMID 24424466; conditions: cited from earlier work
[3] = system: HuES6 hPSC-derived cardiac progenitors; test: HuES6-derived cardiac progenitors replated on day 5: cell number, RT-qPCR, immunocytochemistry; type: cell-based, human; conditions: for effect on cell proliferation / cell numbers, in words: 1.0 μM, day-5 replated progenitors, 4 days of exposure
Protocol: Insulin and signaling agonists were omitted after 1 day. On days 2‐3, the nascent mesodermal cells were specified to the cardiac lineage using 0.2 μM C‐59 (R&D Tocris) supplementation. Culture medium was replaced daily.
Basal cardiac progenitor medium was composed of DMEM/F12 (ThermoFisher Scientific), insulin/transferrin/selenium supplement, 0.1% human serum albumin (Biological Industries Inc, Cromwell, Connecticut), 1× chemically defined lipids (ThermoFisher Scientific), and antibiotics. RAR agonists (1 μM) were added from the day of passaging the cells. Samples were harvested and monitored after 4 days of treatment.
Cell numbers per well were quantified following single‐cell dissociation with Accutase and using standard Neubauer counting chambers. RT‐qPCR and immunocytochemistry were performed according to standard procedures. RPL37A served as housekeeping gene for normalization.

[4] = system: human umbilical vein endothelial cells (HUVECs); design: method as in PMID 24424466; conditions: cited from earlier work
[5] = system: human cardiac fibroblasts (CFs); test: CF proliferation assay (nuclear count)
Protocol: To ensure that these molecules were not general proliferators of all cardiac cells, they were also tested in a human CF proliferation assay31 using nuclear count as the endpoint.

[6] = system: murine CFs; design: method as in PMID 24424466; conditions: cited from earlier work
[7] = target: T1, RARA (alpha) ligand binding domain (Homo sapiens, UniProt P10276); test: RAR LBD-SRC1-2 coactivator peptide recruitment assay, agonist format, RARA; type: biochemical
T1 sequence (P10276 183-417 limits assumed): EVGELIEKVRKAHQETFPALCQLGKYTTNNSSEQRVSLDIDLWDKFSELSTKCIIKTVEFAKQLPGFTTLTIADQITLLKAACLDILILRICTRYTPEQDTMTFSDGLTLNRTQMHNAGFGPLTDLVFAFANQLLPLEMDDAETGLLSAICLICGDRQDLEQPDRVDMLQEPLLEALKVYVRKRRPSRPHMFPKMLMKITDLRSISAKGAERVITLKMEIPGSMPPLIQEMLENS
Protocol: RAR ligand binding domain (LBD)‐SRC1‐2 coactivator peptide (NCOA1_677‐700 biotinylated) recruitment assays were established for the three RAR isotypes RARA (alpha), RARB (beta), and RARG (gamma) to determine relative potencies. […] A total of 0.4 μL of a fixed concentration range of test ligands dissolved in dimethyl sulphoxide (DMSO) was added to assay plates using an acoustic liquid dispenser. […] The raw data were transformed to % effect using the equation: compound % effect = 100 × [(X − min)/(max − min)], where X represents the effect in the presence of test compound and max and min are the effects in presence of the maximum and minimum controls, respectively.
The data were plotted to generate concentration‐response profiles and the concentration‐response curves were fit to the data using the four‐parameter logistic smart fit method in the Genedata Screener software (Genedata, Inc).

[8] = system: human iPS-derived cardiac progenitor cells (CPCs); test: CPC proliferation assay (nuclear count); type: cell-based; conditions: primary screen, relative to basic FGF 100 ng/mL
Protocol: The CPC proliferation assay including image and data analysis was performed as previously described.14 Cardiac progenitor marker antibodies are listed in Table S3.
A library of 10 000 compounds was screened in singlicate at three concentrations (0.1, 1.0, and 10 μM) in the CPC proliferation assay. Each plate contained neutral controls, 0.1% DMSO and maximum controls, 100 ng/mL human basic fibroblast growth factor (FGF; Invitrogen, ThermoFisher Scientific, Waltham, Massachusetts). The data were analyzed using the Genedata Screener software (Genedata, Inc, Basel, Switzerland). […] Results were calculated using the following calculation method: compound % effect = 100 × [(X − min)/(max − min)], where X represents a normalized value for the compound based on the neutral and maximum controls.
The library was screened in three‐point concentration response (CR) at 0.1, 1.0, and 10 μM measuring proliferation of human induced pluripotent stem (iPS)‐derived CPCs with nuclear count, as measured by Hoechst staining, as the primary endpoint.

CC1=C(/C=C/C(C)=C/C=C/C(C)=C/C(=O)O)C(C)(C)CCC1 [ATRA, all‐trans retinoic acid]
EC50 ([1]; 10-point CR, variable between occasions, read-out: EC50 variation between occasions, lower end): 50 nM | EC50 ([1]; 10-point CR, variable between occasions, read-out: EC50 variation between occasions, upper end): > 10000 nM | EC50 ([1]; 10-point concentration response, read-out: EC50, CPC proliferation): 56 nM | EC50 ([1]; iPSC-derived CPC proliferation, 10-point concentration response, read-out: CPC pEC50 (converted)): 50.1 nM | proliferation of human aortic SMCs [2]: inhibited the proliferation | terminal cardiac differentiation, in words ([3]; 1 μM, day-5 replated cells, 4 days): did not acquire a beating phenotype; also recorded: pronounced inhibition of terminal cardiac differentiation | expression of cardiac progenitor markers vs untreated ([3]; 1 μM, day-5 replated cells, 4 days, with the exception of ISL1): enhanced the expression of cardiac progenitor markers | effect on cell proliferation / cell numbers, in words [3]: strong positive effects on cell proliferation | effect on cell proliferation / cell numbers, in words ([3]; listed as RA): increase in cell numbers | proliferation of HUVECs [4]: promoted the proliferation | CF proliferation, result in words [5]: inactive | proliferation of murine CFs [6]: inhibited the proliferation | top effect (% of maximum control) [7]: 103% | % Effect-normalised cell count ([8]; Log Concentration M -5 (10 μM)): 59% | % Effect-normalised cell count ([8]; Log Concentration M -6 (1.0 μM)): 14% | % Effect-normalised cell count ([8]; Log Concentration M -7 (0.1 μM)): 14%
